Read-outs that look alike come from different tables or passages of the source.
Target: WDR5 (Homo sapiens (Human), UniProt P61964)
Experiment: TR-FRET binding assay, displacement of 10mer-Thr-FAM probe from His-tagged WDR5
Method: The LanthaScreenTM Elite Tb-anti-HIS Antibody from ThermoFisher Scientific was used for this purpose. […] The ratio of the 520 and 495 signals are then utilized to generate a dose-response curve to calculate an IC50 value. […] WDR[…] tag protein is used at 2 nM.

[1] = Inhibition of WDR5 by TR-FRET assay

Ki [nM]	Structure (SMILES)	Ki [1] [nM]
–	Cc1cc([C@H](C)NC(=O)c2cc(CNC3=NCCC3)cc(-c3ccc(F)cc3C(F)(F)F)n2)ccc1Cl [Example 92, (S)—N-(1-(4-chloro-3-methylphenyl)ethyl)-4-(((3,4-dihydro-2H-pyrrol-5-yl)amino)methyl)-6-(4-fluoro-2-(trifluoromethyl)phenyl)picolinamide]	1.5
–	COc1cc(OC)cc(C(C)NC(=O)c2cc(CNC3=NCCC3)cc(-c3ccc(F)cc3C(F)(F)F)n2)c1 (stereo not drawn) [Example 93, 4-(((3,4-dihydro-2H-pyrrol-5-yl)amino)methyl)-N-(1-(3,5-dimethoxyphenyl)ethyl)-6-(4-fluoro-2-(trifluoromethyl)phenyl)picolinamide]	3.3
–	COc1ccnc(CNC(=O)c2cc(CNC3=NCCC3)cc(-c3ccc(F)cc3C(F)(F)F)n2)c1 [Example 94, 4-(((3,4-dihydro-2H-pyrrol-5-yl)amino)methyl)-6-(4-fluoro-2-(trifluoromethyl)phenyl)-N-((4-methoxypyridin-2-yl)methyl)picolinamide]	1.2
–	Cc1ccnc(C(NC(=O)c2cc(CNC3=NCCC3)cc(-c3ccc(F)cc3C)n2)C2CC2)c1 (stereo not drawn) [Example 95, N-(Cyclopropyl(4-methylpyridin-2-yl)methyl)-4-(((3,4-dihydro-2H-pyrrol-5-yl)amino)methyl)-6-(4-fluoro-2-methylphenyl)picolinamide]	8.6
–	Cc1cc(C(C)NC(=O)c2cc(CNC3=NCCC3)cc(-c3ccc(F)cc3C(F)(F)F)n2)ncc1Cl (stereo not drawn) [Example 96, N-(1-(5-chloro-4-methylpyridin-2-yl)ethyl)-4-(((3,4-dihydro-2H-pyrrol-5-yl)amino)methyl)-6-(4-fluoro-2-(trifluoromethyl)phenyl)picolinamide]	1.5
–	Cc1cc(F)ccc1-c1cc(CNC2=NCCC2)cc(C(=O)N[C@@H](C)c2ccc(F)c(C(F)(F)F)c2)n1 [Example 97, (S)-4-(((3,4-dihydro-2H-pyrrol-5-yl)amino)methyl)-6-(4-fluoro-2-methylphenyl)-N-(1-(4-fluoro-3-(trifluoromethyl)phenyl)ethyl)picolinamide]	7.3
–	Cc1nc(F)ccc1-c1cc(CNC2=NCCN2)cc(C(=O)NCc2ccc(=O)[nH]c2)n1 [Example 98, 4-(((4,5-dihydro-1H-imidazol-2-yl)amino)methyl)-6′-fluoro-2′-methyl-N-((6-oxo-1,6-dihydropyridin-3-yl)methyl)-[2,3′-bipyridine]-6-carboxamide]	23
–	COc1cc(CNC(=O)c2cc(CNC(=N)N)cc(-c3ccnc(C)c3)c2)cc(OC)c1 [Example 99, N-(3,5-Dimethoxybenzyl)-3-(guanidinomethyl)-5-(2-methylpyridin-4-yl)benzamide]	1.1
–	Cc1cc(-c2cc(CNC(=N)N)cc(C(=O)NCc3cc(F)cc(Cl)c3)c2)ccn1 [Example 100, N-(3-Chloro-5-fluorobenzyl)-3-(guanidinomethyl)-5-(2-methylpyridin-4-yl)benzamide]	2.4
–	COc1ccc(CNC(=O)c2cc(CNC(=N)N)cc(-c3ccnc(C)c3)c2)cc1Cl [Example 101, N-(3-Chloro-4-methoxybenzyl)-3-(guanidinomethyl)-5-(2-methylpyridin-4-yl)benzamide]	2.1
–	COc1ccnc(CNC(=O)c2cc(CNC(=N)N)cc(-c3ccnc(C)c3)c2)c1 [Example 102, 3-(Guanidinomethyl)-N-((4-methoxypyridin-2-yl)methyl)-5-(2-methylpyridin-4-yl)benzamide]	1
–	Cc1cc(-c2cc(CNC(=N)N)cc(C(=O)NCc3ccc(Cl)cn3)c2)ccn1 [Example 103, N-((5-Chloropyridin-2-yl)methyl)-3-(guanidinomethyl)-5-(2-methylpyridin-4-yl)benzamide]	3.3
–	Cc1ccc(CNC(=O)c2cc(CNC(=N)N)cc(-c3ccnc(C)c3)c2)cn1 [Example 104, 3-(guanidinomethyl)-N-((6-methylpyridin-3-yl)methyl)-5-(2-methylpyridin-4-yl)benzamide]	12
–	CCn1cc(-c2cc(CNC(=N)CC3CC3)cc(C(=O)N[C@H](c3ccc(F)c(C)c3)C3CC3)c2)c(C(F)(F)F)n1 [Example 107, (S)—N-(Cyclopropyl(4-fluoro-3-methylphenyl)methyl)-3-((2-cyclopropylacetimidamido)methyl)-5-(1-ethyl-3-(trifluoromethyl)-1H-pyrazol-4-yl)benzamide]	0.15
–	CCn1cc(-c2cc(CNC(=N)C3CCOC3)cc(C(=O)N[C@H](c3ccc(F)c(C)c3)C3CC3)c2)c(C(F)(F)F)n1 (stereo partly drawn) [Example 108, N—((S)-Cyclopropyl(4-fluoro-3-methylphenyl)methyl)-3-(1-ethyl-3-(trifluoromethyl)-1H-pyrazol-4-yl)-5-((tetrahydrofuran-3-carboximidamido)methyl)benzamide]	2
–	CCn1cc(-c2cc(CNC(=N)C3(C)CC3)cc(C(=O)N[C@H](c3ccc(F)c(C)c3)C3CC3)c2)c(C(F)(F)F)n1 [Example 109, (S)—N-(Cyclopropyl(4-fluoro-3-methylphenyl)methyl)-3-(1-ethyl-3-(trifluoromethyl)-1H-pyrazol-4-yl)-5-((1-methylcyclopropane-1-carboximidamido)methyl)benzamide]	0.13
–	CC1(NC(=O)c2cc(Cn3ccnc3)cc(-c3ccc(F)cc3Cl)c2)CCCC1 [Example 138, 5-((1H-Imidazol-1-yl)methyl)-2′-chloro-4′-fluoro-N-(1-methylcyclopentyl)-[1,1′-biphenyl]-3-carboxamide]	50
–	Cc1nc(F)ccc1-c1cc(Cn2ccnc2C2CC2)cc(C(=O)NCc2ccc(Cl)c(Cl)c2)c1 [Example 139, 3-((2-Cyclopropyl-1H-imidazol-1-yl)methyl)-N-(3,4-dichlorobenzyl)-5-(6-fluoro-2-methylpyridin-3-yl)benzamide]	1.6

Ki [nM]	Structure (SMILES)	Ki [1] [nM]
–	COc1cc(CN(C)C(=O)c2cc(Cn3ccnc3)cc(-c3ccc(F)nc3C)c2)cc(OC)c1 [Example 140, 3-((1H-Imidazol-1-yl)methyl)-N-(3,5-dimethoxybenzyl)-5-(6-fluoro-2-methylpyridin-3-yl)-N-methylbenzamide]	95
–	O=C(NCc1ccc(Cl)c(Cl)c1)c1cc(Cn2ccnc2)cc(C(F)(F)F)c1 [Example 141, 3-((1H-Imidazol-1-yl)methyl)-N-(3,4-dichlorobenzyl)-5-(trifluoromethyl)benzamide]	10
–	O=C(NCc1ccc(Cl)c(Cl)c1)c1cc(Cn2ccnc2)cc(OC2CCC2)c1 [Example 142, 3-((1H-Imidazol-1-yl)methyl)-5-cyclobutoxy-N-(3,4-dichlorobenzyl)benzamide]	0.59
–	Cc1nccn1Cc1cc(OC2CCC2)cc(C(=O)NCc2ccc(Cl)c(Cl)c2)c1 [Example 143, 3-Cyclobutoxy-N-(3,4-dichlorobenzyl)-5-((2-methyl-1H-imidazol-1-yl)methyl)benzamide]	0.43
–	Cc1ccnc(C(NC(=O)c2cc(Cn3ccnc3C)cc(N3CCOCC3)c2)C2CC2)c1 (stereo not drawn) [Example 144, N-(cyclopropyl(4-methylpyridin-2-yl)methyl)-3-((2-methyl-1H-imidazol-1-yl)methyl)-5-morpholinobenzamide]	4.77
–	COc1cc(CNC(=O)c2cc(Cn3ccnc3)cc(-c3ccc(=O)[nH]c3)c2)cc(OC)c1 [Example 145, 3-((1H-Imidazol-1-yl)methyl)-N-(3,5-dimethoxybenzyl)-5-(6-oxo-1,6-dihydropyridin-3-yl)benzamide]	22
–	COc1ccnc(CNC(=O)c2cc(C)c(OC)c(Cn3ccnc3C)c2)c1 [Example 146, 4-Methoxy-N-((4-methoxypyridin-2-yl)methyl)-3-methyl-5-((2-methyl-1H-imidazol-1-yl)methyl)benzamide]	500
–	Cc1nccn1Cc1cc(C(=O)NCc2ccc(Cl)c(Cl)c2)cc(-c2cccc(CO)c2)c1 [Example 147, N-(3,4-dichlorobenzyl)-3′-(hydroxymethyl)-5-((2-methyl-1H-imidazol-1-yl)methyl)-[1,1′-biphenyl]-3-carboxamide]	0.31
–	COc1cc(OC)cc(C(C)NC(=O)c2cc(Cn3ccnc3C)cc(-c3cccc(CO)c3)n2)c1 (stereo not drawn) [Example 157, N-(1-(3,5-dimethoxyphenyl)ethyl)-6-(3-(hydroxymethyl)phenyl)-4-((2-methyl-1H-imidazol-1-yl)methyl)picolinamide]	27
–	COc1cc(OC)cc(C(C)NC(=O)c2cc(Cn3ccnc3C)cc(-c3ccc(F)cc3OC)n2)c1 (stereo not drawn) [Example 158, N-(1-(3,5-dimethoxyphenyl)ethyl)-6-(4-fluoro-2-methoxyphenyl)-4-((2-methyl-1H-imidazol-1-yl)methyl)picolinamide]	8
–	COc1cc(OC)cc(C(C)NC(=O)c2cc(Cn3ccnc3C)cc(-c3ccc(F)c(C(N)=O)c3)n2)c1 (stereo not drawn) [Example 161, 6-(3-Carbamoyl-4-fluorophenyl)-N-(1-(3,5-dimethoxyphenyl)ethyl)-4-((2-methyl-1H-imidazol-1-yl)methyl)picolinamide]	> 33
–	COc1cc(OC)cc(C(C)NC(=O)c2cc(Cn3ccnc3C)cc(-c3ccc(F)c(CO)c3)n2)c1 (stereo not drawn) [Example 163, N-(1-(3,5-dimethoxyphenyl)ethyl)-6-(4-fluoro-3-(hydroxymethyl)phenyl)-4-((2-methyl-1H-imidazol-1-yl)methyl)picolinamide]	> 33
–	COc1cc(F)ccc1-c1cc(Cn2ccnc2C)cc(C(=O)NCc2ccc(Cl)c(Cl)c2)n1 [Example 165, N-(3,4-Dichlorobenzyl)-6-(4-fluoro-2-methoxyphenyl)-4-((2-methyl-1H-imidazol-1-yl)methyl)picolinamide]	11
0.622	COc1ccc(C(=O)NCc2ccc(Cl)c(Cl)c2)cc1CNC1=NCCN1 [Example B28]	–
0.444	O=C(NCc1ccc(Cl)c(Cl)c1)c1cc(F)c(F)c(CNC2=NCCN2)c1 [Example B33]	–
0.189	Cc1cc(CNC(=O)c2ccc(F)c(CNC3=NCCN3)c2)ccc1Cl [Example B47]	–
0.131	COc1cc(CNC(=O)c2cc(CNC3=NCCN3)cc(-c3ccc(F)nc3C)c2)cc(OC)c1 [Example B63]	–

Structure (SMILES)	Ki [nM]	Ki [1] [nM]
O=C(NCc1ccc(Cl)c(Cl)c1)c1cc(CNC2=NCCN2)ccc1F [Example B36, N-(3,4-dichlorobenzyl)-5-(((4,5-dihydro-1H-imidazol-2-yl)amino)methyl)-2-fluorobenzamide]	0.917	–

— patent US10807959B2, “WDR5-MLL1 inhibitors and modulators” (Vanderbilt University, priority 2018, dated 2020)
